# Measured values as given in patent EP2818471A1, “Nitrogen bicyclic compounds as inhibitors for Scyl1 and Grk5” (Max-Planck-Gesellschaft zur Förderung der Wissenschaften …, priority 2013, dated 2014).
# Tested on: beta-TC6 cells
# Assay: Insulin HTRF assay, relative activity Ar normalized to sunitinib
# Format: cell-based
# Settings: Mus musculus, normalized to positive control sunitinib (5 µM = 100%), Table 10
# Outline: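 beta-TC6 cells (15k/well) were seeded for 24 or 48 h, washed and exposed to test compound or sunitinib (5 µM f.c.) in induction buffer with 0.5% DMSO for 2, 3 or 4 h at 37°C. Secreted insulin in the supernatant was measured by two-antibody HTRF after 120 min at RT. Ar = (V − 0% control)/(100% control − 0% control) × 100.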
row,Compound,Emax
1,"C(=C\c1cn2c(-c3cccs3)cnc2cn1)/c1ccccc1 [compound 419, 6-[(E)-styryl]-3-(2-thienyl)imidazo[1,2-a]pyrazine]",20 to 50%
2,"Clc1ccccc1-c1ccc2ncc(-c3cccs3)n2n1 [compound 158, 6-(2-chlorophenyl)-3-(2-thienyl)imidazo[1,2-b]pyridazine]",10 to 20%
3,"CN(C)c1cccc(-c2cnc3cnc(-c4cccs4)cn23)c1 [compound 345, N,N-dimethyl-3-[6-(2-thienyl)imidazo[1,2-a]pyrazin-3-yl]aniline]",20 to 50%
4,"CC(=O)c1cccc(-c2cnc3cnc(-c4cccnc4)cn23)c1 [compound 409, 1-[3-[6-(3-pyridyl)imidazo[1,2-a]pyrazin-3-yl]phenyl]ethanone]",20 to 50%
5,"c1ccc(Cn2cc(-c3cn4c(-c5ccc6c(c5)OCO6)cnc4cn3)cn2)cc1 [compound 307, 3-(1,3-benzodioxol-5-yl)-6-(1-benzylpyrazol-4-yl)imidazo[1,2-a]pyrazine]",50 to 100%
6,"N#Cc1ccc(-c2cnc3cnc(-c4ccc(Cl)cc4)cn23)cc1 [compound 337, 4-[6-(4-chlorophenyl)imidazo[1,2-a]pyrazin-3-yl]benzonitrile]",50 to 100%
7,"COc1cc(OC)cc(-c2cn3c(-c4ccc5c(c4)OCO5)cnc3cn2)c1 [compound 308, 3-(1,3-benzodioxol-5-yl)-6-(3,5-dimethoxyphenyl)imidazo[1,2-a]pyrazine]",50 to 100%
8,"CN(C)/C(=C1\N=C(c2ccccc2)OC1=O)c1cnc2cccnn12 [compound 162, (4Z)-4-[dimethylamino(imidazo[1,2-b]pyridazin-3-yl)methylene]-2-phenyl-oxazol-5-one]",10 to 20%
9,"c1cnn2c(-c3ccc4c(c3)CCO4)cnc2c1 [compound 80, 3-(2,3-dihydrobenzofuran-5-yl)imidazo[1,2-b]pyridazine]",10 to 20%
10,"O=C(NCCO)c1ccc(-c2cn3c(-c4ccsc4)cnc3cn2)cc1 [compound 321, N-(2-hydroxyethyl)-4-[3-(3-thienyl)imidazo[1,2-a]pyrazin-6-yl]benzamide]",10 to 20%
11,"COc1cc(-c2cnc3cnc(-c4ccc(N5CCN(C)CC5)nc4)cn23)ccc1O [compound 393, 2-methoxy-4-[6-[6-(4-methylpiperazin-1-yl)-3-pyridyl]imidazo[1,2-a]pyrazin-3-yl]phenol]",20 to 50%
12,"COc1ccccc1-c1ccc2ncc(-c3ccc(F)c(Cl)c3)n2n1 [compound 113, 3-(3-chloro-4-fluoro-phenyl)-6-(2-methoxyphenyl)imidazo[1,2-b]pyridazine]",20 to 50%
13,"CN(C)c1ccc(-c2ccc3nnc(-c4cccnc4)n3c2)cc1 [compound 182, N,N-dimethyl-4-[3-(3-pyridyl)-[1,2,4]triazolo[4,3-a]pyridin-6-yl]aniline]",50 to 100%
14,"COc1ccc(-c2cnc3cnc(-c4ccc(N5CCN(C)CC5)cc4)cn23)cn1 [compound 381, 3-(6-methoxy-3-pyridyl)-6-[4-(4-methylpiperazin-1-yl)phenyl]imidazo[1,2-a]pyrazine]",20 to 50%
15,"OCc1ccc(-c2ccc3ncc(-c4cccnc4)n3n2)cc1 [compound 106, [4-[3-(3-pyridyl)imidazo[1,2-b]pyridazin-6-yl]phenyl]methanol]",20 to 50%
16,"COc1cc(-c2cn3c(-c4ccc5ncccc5c4)cnc3cn2)cc(OC)c1OC [compound 440, 6-[6-(3,4,5-trimethoxyphenyl)imidazo[1,2-a]pyrazin-3-yl]quinoline]",20 to 50%
17,"CS(=O)(=O)c1cccc(-c2ccc3nnc(-c4ccccn4)n3c2)c1 [compound 249, 6-(3-methylsulfonylphenyl)-3-(2-pyridyl)-[1,2,4]triazolo[4,3-a]pyridine]",20 to 50%
18,"CC(C)Oc1cccc(-c2cn3c(-c4cccc(CO)c4)cnc3cn2)c1 [compound 380, [3-[6-(3-isopropoxyphenyl)imidazo[1,2-a]pyrazin-3-yl]phenyl]methanol]",20 to 50%
19,"COc1ccc(-c2cnc3ccc(N[C@H](CO)C(C)C)nn23)c(OC)c1 [compound 46, (2S)-2-[[3-(2,4-dimethoxyphenyl)imidazo[1,2-b]pyridazin-6-yl]amino]-3-methyl-butan-1-ol]",20 to 50%
20,"CC(=O)Nc1cccc(-c2ccc3nnc(-c4ccccc4)n3c2)c1 [compound 165, N-[3-(3-phenyl-[1,2,4]triazolo[4,3-a]pyridin-6-yl)phenyl]acetamide]",50 to 100%
21,"COc1ccc(CNc2ccc3ncc(-c4ccc5[nH]ccc5c4)n3n2)cc1 [compound 37, 3-(1H-indol-5-yl)-N-[(4-methoxyphenyl)methyl]imidazo[1,2-b]pyridazin-6-amine]",20 to 50%
22,"CCOc1cccc(-c2cnc3cccnn23)c1 [compound 76, 3-(3-ethoxyphenyl)imidazo[1,2-b]pyridazine]",10 to 20%
23,"COc1ccc(-c2cn3c(-c4ccc(OC)nc4)cnc3cn2)cn1 [compound 382, 3,6-bis(6-methoxy-3-pyridyl)imidazo[1,2-a]pyrazine]",20 to 50%

row,Compound,Emax
1,"CS(=O)(=O)Nc1cccc(-c2ccc3ncc(-c4ccncc4)n3n2)c1 [compound 105, N-[3-[3-(4-pyridyl)imidazo[1,2-b]pyridazin-6-yl]phenyl]methanesulfonamide]",20 to 50%
2,"Cc1cccc(-c2cn3c(-c4ccc(CCC(=O)O)cc4)cnc3cn2)c1C [compound 334, 3-[4-[6-(2,3-dimethylphenyl)imidazo[1,2-a]pyrazin-3-yl]phenyl]propanoic acid]",50 to 100%
3,"O=C(NCCO)c1cccc(-c2cn3c(-c4cccc(OC(F)(F)F)c4)cnc3cn2)c1 [compound 353, N-(2-hydroxyethyl)-3-[3-[3-(trifluoromethoxy)phenyl]imidazo[1,2-a]pyrazin-6-yl]benzamide]",20 to 50%
4,"COc1cc(-c2cnc3ccc(NCc4cccc(Cl)c4)nn23)ccc1O [compound 16, 4-[6-[(3-chlorophenyl)methylamino]imidazo[1,2-b]pyridazin-3-yl]-2-methoxy-phenol]",20 to 50%
5,"Cn1cc(-c2cn3c(-c4ccc(O)cc4)cnc3cn2)cn1 [compound 327, 4-[6-(1-methylpyrazol-4-yl)imidazo[1,2-a]pyrazin-3-yl]phenol]",20 to 50%
6,"CSc1ccccc1-c1cnc2cccnn12 [compound 86, 3-(2-methylsulfanylphenyl)imidazo[1,2-b]pyridazine]",50 to 100%
7,"CC(C(=O)Nc1cnc2cnc(-c3ccc4c(c3)OCO4)cn12)c1ccccc1 (stereo not drawn) [compound 270, N-[6-(1,3-benzodioxol-5-yl)imidazo[1,2-a]pyrazin-3-yl]-2-phenyl-propanamide]",20 to 50%
8,"CC(C)c1cccc(-c2ccc3nnc(-c4cccnc4)n3c2)c1 [compound 183, 6-(3-isopropylphenyl)-3-(3-pyridyl)-[1,2,4]triazolo[4,3-a]pyridine]",50 to 100%
9,"CSc1ccc(-c2cn3c(-c4cccc(CO)c4)cnc3cn2)cc1 [compound 377, [3-[6-(4-methylsulfanylphenyl)imidazo[1,2-a]pyrazin-3-yl]phenyl]methanol]",20 to 50%
10,"Clc1ccc(-c2cnc3cnc(-c4ccncc4)cn23)cc1 [compound 347, 3-(4-chlorophenyl)-6-(4-pyridyl)imidazo[1,2-a]pyrazine]",20 to 50%
11,"Fc1ccc(-c2cnc3cnc(-c4ccco4)cn23)cc1Cl [compound 351, 3-(3-chloro-4-fluoro-phenyl)-6-(2-furyl)imidazo[1,2-a]pyrazine]",20 to 50%
12,"COc1ccc(-c2nnc3ccc(-c4cccc(C(=O)N(C)C)c4)cn23)cc1OC [compound 188, 3-[3-(3,4-dimethoxyphenyl)-[1,2,4]triazolo[4,3-a]pyridin-6-yl]-N,N-dimethyl-benzamide]",50 to 100%
13,"COc1cc(C#Cc2ccc3nnc(-c4ccc(OCCCN(C)C)cc4)n3c2)cc(OC)c1 [compound 239, 3-[4-[6-[2-(3,5-dimethoxyphenyl)ethynyl]-[1,2,4]triazolo[4,3-a]pyridin-3-yl]phenoxy]-N,N-dimethyl-propan-1-amine]",20 to 50%
14,"COc1cc(-c2cnc3cnc(-c4ccc(N5CCN(C)CC5)nc4)cn23)cc(OC)c1OC [compound 340, 6-[6-(4-methylpiperazin-1-yl)-3-pyridyl]-3-(3,4,5-trimethoxyphenyl)imidazo[1,2-a]pyrazine]",20 to 50%
15,"c1csc(-c2cn3c(-c4ccc5c(c4)OCO5)cnc3cn2)c1 [compound 306, 3-(1,3-benzodioxol-5-yl)-6-(2-thienyl)imidazo[1,2-a]pyrazine]",50 to 100%
16,"COc1cc(-c2ccc3ncc(-c4cccs4)n3n2)ccc1O [compound 157, 2-methoxy-4-[3-(2-thienyl)imidazo[1,2-b]pyridazin-6-yl]phenol]",20 to 50%
17,"Fc1ccc(-c2ccc3nnc(-c4cscn4)n3c2)cc1Cl [compound 228, 4-[6-(3-chloro-4-fluoro-phenyl)-[1,2,4]triazolo[4,3-a]pyridin-3-yl]thiazole]",20 to 50%
18,"CC(C)N1CCN(c2ccc(-c3cn4c(-c5ccc(C(=O)NC6CC6)cc5)cnc4cn3)cc2)CC1 [compound 435, N-cyclopropyl-4-[6-[4-(4-isopropylpiperazin-1-yl)phenyl]imidazo[1,2-a]pyrazin-3-yl]benzamide]",20 to 50%
19,"Cc1ccc(CNc2ccc3ncc(-c4ccc(O)cc4)n3n2)c(C)c1 [compound 52, 4-[6-[(2,4-dimethylphenyl)methylamino]imidazo[1,2-b]pyridazin-3-yl]phenol]",20 to 50%
20,"CCCNc1ccc2ncc(-c3ccc(C(=O)O)cc3)n2n1 [compound 20, 4-[6-(propylamino)imidazo[1,2-b]pyridazin-3-yl]benzoic acid]",10 to 20%
21,"CCCC/C=C/c1cn2c(NC(=O)Cc3cccc(OC)c3)cnc2cn1 [compound 253, N-[6-[(E)-hex-1-enyl]imidazo[1,2-a]pyrazin-3-yl]-2-(3-methoxyphenyl)acetamide]",10 to 20%
22,"COc1cc(-c2cnc3cnc(-c4ccc(NCCN5CCOCC5)nc4)cn23)ccc1O [compound 392, 2-methoxy-4-[6-[6-(2-morpholinoethylamino)-3-pyridyl]imidazo[1,2-a]pyrazin-3-yl]phenol]",20 to 50%
